This note sets out measurements from US12633373B2, “Systems and methods to predict structures and properties of biomolecule-ligand complexes and uses thereof” (The Board of Trustees of the Leland Stanford Junior …, priority 2020, dated 2026).

Experiment [1] has as its system D2 dopamine receptor (D2R) S193 mutants (Val, Leu, Ala). In words: Mutagenesis of Ser193 (S193) of D2R, ligand affinity. To be noted: S193 mutated to a larger residue (Val or Leu). It counts as binding. The source says: (§1) To test the embodiment's predictions, mutagenesis experiments were designed.
The target of experiment [2] is D2 dopamine receptor (D2R) S193 mutants (Val, Leu, Ala) (Homo sapiens, UniProt P14416, S193A). The experiment is described as above. It counts as binding. To be noted: S193 mutated to a smaller residue (Ala).
Sequence of D2 dopamine receptor (D2R) S193 mutants (Val, Leu, Ala) (Homo sapiens, UniProt P14416, S193A) (P14416 whole entry S193A): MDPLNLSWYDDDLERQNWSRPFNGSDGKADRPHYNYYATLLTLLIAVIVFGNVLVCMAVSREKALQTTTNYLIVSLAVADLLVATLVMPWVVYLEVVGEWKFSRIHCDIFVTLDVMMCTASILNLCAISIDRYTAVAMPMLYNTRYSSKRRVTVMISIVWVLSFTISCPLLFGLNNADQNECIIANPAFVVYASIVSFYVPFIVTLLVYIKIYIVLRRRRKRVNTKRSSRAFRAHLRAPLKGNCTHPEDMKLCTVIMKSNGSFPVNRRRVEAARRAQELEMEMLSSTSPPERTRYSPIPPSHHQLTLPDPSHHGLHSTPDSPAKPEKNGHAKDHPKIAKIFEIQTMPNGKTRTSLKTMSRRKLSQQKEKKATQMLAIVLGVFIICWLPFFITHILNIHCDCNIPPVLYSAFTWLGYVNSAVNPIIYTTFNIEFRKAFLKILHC
Description: as §1

Experiment [3] has as its system D2 dopamine receptor (D2R) Val91 and Trp100 mutants. Nature of the experiment: Mutagenesis of Val91 and Trp100 of D2R, ligand affinity. To be noted: mutation of Val91 and Trp100, top of the ligand binding pocket. An excerpt:
Mutations to several residues surrounding the top and bottom of the binding pocket were also considered. Unlike Glide, the embodiment predicts that all four ligands will position a fluorobenzene ring at the bottom of the binding pocket, packing favorably against Trp386 (W386). […] At the top of the ligand binding pocket, near Val91 and Trp100, the embodiment predicts that the pimozide and benperidol will place identical functional groups that differ somewhat from those of spiperone and mespiperone.

Consider `O=C(CCCN1CCC(n2c(O)nc3ccccc32)CC1)c1ccc(F)cc1` [benperidol], for which the “change of affinity on mutation” value in experiment [1] was “increases”; in experiment [2], “not observed”. In addition, the “effect of mutation on ligand” value in experiment [3] is “slightly differently from spiperone and mespiperone”.
